According to the supplement of paper PMC11061612:

Experiments:
Lapatinib = compound: CS(=O)(=O)CCNCc1ccc(-c2ccc3ncnc(Nc4ccc(OCc5cccc(F)c5)c(Cl)c4)c3c2)o1 [Lapatinib]; conditions: max 10 µM
Method in brief: (§1)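 Plates with 1536 wells received cancer cell lines in 7.5 μl of DMEM/F12 or RPMI containing 10% FBS. After 24 hours at 37°C and 5% CO2, cells were dosed for 72 hours with final DMSO typically 0.2%, and viability was read by CellTiter-Glo 2.0 luminescence scaled between blank-well and DMSO-well means. The single-agent IC50 was taken from a logistic fit of the dose responses made with a non-linear mixed effects model, that logistic curve having two parameters.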

AZD8186 = compound: C[C@@H](Nc1cc(F)cc(F)c1)c1cc(C(=O)N(C)C)cc2c(=O)cc(N3CCOCC3)oc12 [AZD8186]; conditions: max 3 µM
Method in brief: as §1

AZD4320 = compound: CN(CC[C@H](CSC1=CC=CC=C1)NC2=C(C=C(C=C2)S(=O)(=O)NC(=O)C3=CC=C(C=C3)N4CCC(CC4)[C@H](C5=CC=CC=C5C6=CC=C(C=C6)Cl)O)S(=O)(=O)C(F)(F)F)CCO [AZD4320]; conditions: max 1 µM
Method in brief: as §1

Olaparib = compound: O=C(c1cc(Cc2n[nH]c(=O)c3ccccc23)ccc1F)N1CCN(C(=O)C2CC2)CC1 [Olaparib]; conditions: max 10 µM
Method in brief: as §1

SN-38 = compound: CCc1c2c(nc3ccc(O)cc13)-c1cc3c(c(=O)n1C2)COC(=O)[C@]3(O)CC [SN-38]; conditions: max 0.3 µM
Method in brief: as §1

SG3199 = compound: CC1=CN2[C@@H](C1)C=NC3=CC(=C(C=C3C2=O)OC)OCCCCCOC4=C(C=C5C(=C4)N=C[C@@H]6CC(=CN6C5=O)C)OC [SG3199]; conditions: max 0.001 µM
Method in brief: as §1

Taselisib = compound: Cc1nc(-c2cn3c(n2)-c2ccc(-c4cnn(C(C)(C)C(N)=O)c4)cc2OCC3)n(C(C)C)n1 [Taselisib]; conditions: max 10 µM
Method in brief: as §1

Trametinib = compound: CC(=O)Nc1cccc(-n2c(=O)n(C3CC3)c(=O)c3c(Nc4ccc(I)cc4F)n(C)c(=O)c(C)c32)c1 [Trametinib]; conditions: max 1 µM
Method in brief: as §1

Capivasertib = compound: C1CN(CCC1(C(=O)N[C@@H](CCO)C2=CC=C(C=C2)Cl)N)C3=NC=NC4=C3C=CN4 [Capivasertib]; conditions: max 10 µM
Method in brief: as §1

Savolitinib = compound: C[C@@H](c1ccc2nccn2c1)n1nnc2ncc(-c3cnn(C)c3)nc21 [Savolitinib]; conditions: max 1 µM
Method in brief: as §1

Gefitinib = compound: COc1cc2ncnc(Nc3ccc(F)c(Cl)c3)c2cc1OCCCN1CCOCC1 [Gefitinib]; conditions: max 10 µM
Method in brief: as §1

Selumetinib = compound: Cn1cnc2c(F)c(Nc3ccc(Br)cc3Cl)c(C(=O)NOCCO)cc21 [Selumetinib]; conditions: max 10 µM
Method in brief: as §1

AZD0156 = compound: CN(C)CCCOc1ccc(-c2ccc3ncc4c(c3c2)n(C2CCOCC2)c(=O)n4C)cn1 [AZD0156]; conditions: max 3 µM
Method in brief: as §1

Doxorubicin = compound: COc1cccc2c1C(=O)c1c(O)c3c(c(O)c1C2=O)C[C@@](O)(C(=O)CO)C[C@@H]3O[C@H]1C[C@H](N)[C@H](O)[C@H](C)O1 [Doxorubicin]; conditions: max 1 µM
Method in brief: as §1

Dasatinib = compound: CC1=C(C(=CC=C1)Cl)NC(=O)C2=CN=C(S2)NC3=CC(=NC(=N3)C)N4CCN(CC4)CCO [Dasatinib]; conditions: max 2 µM
Method in brief: as §1

AZD1390 = compound: CC(C)n1c(=O)n(C)c2cnc3cc(F)c(-c4ccc(OCCCN5CCCCC5)nc4)cc3c21 [AZD1390]; conditions: max 0.3 µM
Method in brief: as §1

Palbociclib = compound: CC(=O)c1c(C)c2cnc(Nc3ccc(N4CCNCC4)cn3)nc2n(C2CCCC2)c1=O [Palbociclib]; conditions: max 10 µM
Method in brief: as §1

Prexasertib = compound: COc1cccc(OCCCN)c1-c1cc(Nc2cnc(C#N)cn2)n[nH]1 [Prexasertib]; conditions: max 1 µM
Method in brief: as §1

Crizotinib = compound: C[C@@H](Oc1cc(-c2cnn(C3CCNCC3)c2)cnc1N)c1c(Cl)ccc(F)c1Cl [Crizotinib]; conditions: max 10 µM
Method in brief: as §1

Venetoclax = compound: CC1(C)CCC(CN2CCN(c3ccc(C(=O)NS(=O)(=O)c4ccc(NCC5CCOCC5)c([N+](=O)[O-])c4)c(Oc4cnc5[nH]ccc5c4)c3)CC2)=C(c2ccc(Cl)cc2)C1 [Venetoclax]; conditions: max 1 µM
Method in brief: as §1

AZD2811 = compound: CCN(CCO)CCCOc1ccc2c(Nc3cc(CC(=O)Nc4cccc(F)c4)[nH]n3)ncnc2c1 [AZD2811]; conditions: max 1 µM
Method in brief: as §1

AZD6738 = compound: C[C@@H]1COCCN1C2=NC(=NC(=C2)C3(CC3)[S@](=N)(=O)C)C4=C5C=CNC5=NC=C4 [AZD6738]; conditions: max 10 µM
Method in brief: as §1

AZD5991 = compound: Cc1c2c(nn1C)CSCc1cc(n(C)n1)CSc1cc(c3ccccc3c1)OCCCc1c(C(=O)O)n(C)c3c-2c(Cl)ccc13 [AZD5991]; conditions: max 1 µM
Method in brief: as §1

AZD1775 = compound: C=CCn1c(=O)c2cnc(Nc3ccc(N4CCN(C)CC4)cc3)nc2n1-c1cccc(C(C)(C)O)n1 [AZD1775]; conditions: max 3 µM
Method in brief: as §1

AZD5153 = compound: COc1nnc2ccc(N3CCC(c4ccc(OCCN5CCN(C)C(=O)[C@H]5C)cc4)CC3)nn12 [AZD5153]; conditions: max 1 µM
Method in brief: as §1

Alisertib = compound: COc1cc(Nc2ncc3c(n2)-c2ccc(Cl)cc2C(c2c(F)cccc2OC)=NC3)ccc1C(=O)O [Alisertib]; conditions: max 10 µM
Method in brief: as §1

AZD7648 = compound: Cc1cc2ncnn2cc1Nc1ncc2c(n1)n(C1CCOCC1)c(=O)n2C [AZD7648]; conditions: max 10 µM
Method in brief: as §1

MK-2206 = compound: NC1(c2ccc(-c3nc4ccn5c(=O)[nH]nc5c4cc3-c3ccccc3)cc2)CCC1 [MK-2206]; conditions: max 10 µM
Method in brief: as §1

Row | Cell Line | IC50, cell viability 72 h (Lapatinib) [µM] | IC50, cell viability 72 h (AZD8186) [µM] | IC50, cell viability 72 h (AZD4320) [µM] | IC50, cell viability 72 h (Olaparib) [µM] | IC50, cell viability 72 h (SN-38) [µM] | IC50, cell viability 72 h (SG3199) [µM] | IC50, cell viability 72 h (Taselisib) [µM] | IC50, cell viability 72 h (Trametinib) [µM] | IC50, cell viability 72 h (Capivasertib) [µM] | IC50, cell viability 72 h (Savolitinib) [µM] | IC50, cell viability 72 h (Gefitinib) [µM] | IC50, cell viability 72 h (Selumetinib) [µM] | IC50, cell viability 72 h (AZD0156) [µM] | IC50, cell viability 72 h (Doxorubicin) [µM] | IC50, cell viability 72 h (Dasatinib) [µM] | IC50, cell viability 72 h (AZD1390) [µM] | IC50, cell viability 72 h (Palbociclib) [µM] | IC50, cell viability 72 h (Prexasertib) [µM] | IC50, cell viability 72 h (Crizotinib) [µM] | IC50, cell viability 72 h (Venetoclax) [µM] | IC50, cell viability 72 h (AZD2811) [µM] | IC50, cell viability 72 h (AZD6738) [µM] | IC50, cell viability 72 h (AZD5991) [µM] | IC50, cell viability 72 h (AZD1775) [µM] | IC50, cell viability 72 h (AZD5153) [µM] | IC50, cell viability 72 h (Alisertib) [µM] | IC50, cell viability 72 h (AZD7648) [µM] | IC50, cell viability 72 h (MK-2206) [µM]
1 | HT-144 (Melanoma) | 8.83 | > 3 | > 1 | > 10 | 0.0681 | > 0.001 | 5.01 | 0.0179 | 5.45 | > 1 | > 10 | 0.632 | > 3 | > 1 | > 2 | > 0.3 | > 10 | 0.139 | 4.71 | > 1 | > 1 | 3.48 | 0.221 | 0.25 | 0.981 | > 10 | > 10 | 
2 | HT-1197 (Bladder Carcinoma) | > 10 | > 3 | > 1 | > 10 | > 0.3 | > 0.001 | 2.89 | > 1 | > 10 | > 1 | > 10 | > 10 | > 3 | > 1 | > 2 | > 0.3 | > 10 | > 1 | > 10 | > 1 | > 1 | > 10 | > 1 | 2.15 | 0.697 | > 10 | > 10 | 
3 | IGROV-1 (Ovarian Carcinoma) | 0.764 | 1.32 | > 1 | > 10 | 0.177 | > 0.001 | 0.0172 | 0.0196 | 0.438 | > 1 | 1.55 | 1.07 | > 3 | 0.924 | 0.0169 | > 0.3 | 5.56 | 0.054 | 9.83 | > 1 | > 1 | 2.9 | > 1 | 0.191 | 0.39 | 1.63 | > 10 | 
4 | JJN-3 (Plasma Cell Myeloma) | > 10 | > 3 | 0.866 | > 10 | 0.163 | > 0.001 | > 10 | > 1 | > 10 | > 1 | > 10 | > 10 | > 3 | 0.994 | > 2 | > 0.3 | > 10 | 0.0274 | > 10 | > 1 | > 1 | 5.74 | 0.0495 | 0.654 | 0.0476 | > 10 | > 10 | > 10
5 | JURL-MK1 (Chronic Myelogenous Leukemia) | > 10 | > 3 | 0.322 | > 10 | 0.0098 | > 0.001 | > 10 | 0.00576 | > 10 | > 1 | > 10 | 0.339 | > 3 | 0.115 | < 0.002 | > 0.3 | 0.248 | 0.00255 | 0.32 | > 1 | > 1 | 0.228 | 0.778 | 0.0851 | 0.0613 | 0.297 | > 10 | 
6 | NCI-H1944 (Lung Adenocarcinoma) | > 10 | > 3 | > 1 | > 10 | 0.134 | > 0.001 | 1.6 | 0.733 | 7.93 | > 1 | > 10 | > 10 | > 3 | > 1 | > 2 | > 0.3 | > 10 | 0.134 | > 10 | > 1 | > 1 | 3.98 | > 1 | 0.839 | 0.491 | 4.87 | > 10 | > 10
7 | NCI-H1975 (Lung Adenocarcinoma) | > 10 | > 3 | > 1 | > 10 | > 0.3 | > 0.001 | 1.22 | > 1 | 3.84 | > 1 | > 10 | > 10 | > 3 | 0.497 | 1.01 | > 0.3 | > 10 | > 1 | > 10 | > 1 | > 1 | > 10 | > 1 | 1.62 | 0.359 | > 10 | > 10 | 
8 | NCI-H2170 (Squamous Cell Lung Carcinoma) | 0.362 | > 3 | 0.665 | > 10 | 0.0136 | > 0.001 | 1.54 | > 1 | 5.47 | > 1 | 1.98 | > 10 | > 3 | 0.539 | > 2 | > 0.3 | > 10 | 0.0468 | 7.38 | > 1 | 0.391 | 7.67 | > 1 | 0.678 | > 1 | 1.1 | > 10 | 
